Data: patent US8012945B2, “Phage antibodies to radiation-inducible neoantigens” (Vanderbilt University, priority 2001, dated 2011)

Experiments:
[1] = target: T1, GP-IIb/IIIa receptors on activated platelets (Homo sapiens, UniProt P05106+P08514); test: Clinical trial of x-ray-guided delivery, gamma camera/SPECT imaging of ^99mTc-labeled biapcitide; format: in vivo
T1 construct: endogenous in cells; host or cells: platelets in irradiated tumours of patients (in vivo imaging)
Protocol: Biapcitide (ACUTECT® available from Diatide, Inc., Londonderry, N.H., United States of America) is a synthetic peptide that binds to GP-IIb/IIIa receptors on activated platelets (Hawiger et al., 1989; Hawiger & Timmons, 1992). Biapcitide was labeled with ^99mTc in accordance with a protocol provided by Diatide Inc.
Reconstituted ^99mTc-labeled biapcitide was administered to patients at a dose of 100 mcg of biapcitide radiolabeled with 10 millicuries (mCi) of ^99mTc. […] Patients were then treated with 10 Gy or more. Patients underwent gamma camera imaging prior to irradiation and 24 hours following irradiation. Following planar image acquisition, those patients showing uptake in irradiated tumors underwent tomographic imaging using SPECT and repeat imaging at 24 hours. Patients showing no uptake on planer images during this 24-hour time frame had no further imaging.
Patients were treated with X-irradiation ranging from 4 to 18 MV photon using external beam linear accelerator at Vanderbilt University. Appropriate blocks, wedges and bolus to deliver adequate dose to the planned target volume was utilized. The site of irradiation, treatment intent and normal tissue considerations determined the radiation dosage and volume. When stereotactic radiosurgery was used, the dose was prescribed to the tumor periphery.
Image Analysis. Image acquisition consisted of both planar and single photon emission computed tomography (SPECT) studies. […] The spatial distribution of […] within the planar image was measured using region of interest (ROI) analysis. […] The rationale for using ROIs with different dimensions is to be able to quantify image counts while at the same time isolating any possible influence of ROI size on the results. […] Background counts was determined based on ROI analysis of a separate planar acquisition performed in the absence of a radioactive source.
Three-dimensional nuclear medicine SPECT examinations were performed using the same dual-head gamma camera system. […] SPECT tumor-to-background ratios were computed using quantitative ROI techniques identical to the planar studies.

B16F0 tumors = test: Biotinylated dodecapeptide binding in B16F0 hind limb tumors, Avidin-FITC staining; format: in vivo, mice
From the text: Observations. The peptide sequence within fibrinogen that binds to the activated GPIIb/IIIa receptor is the dodecapeptide […] (SEQ ID NO: 16). To determine whether […] (SEQ ID NO: 16) binds in irradiated tumors, applicant utilized the peptide […] (SEQ ID NO: 16) linked to biotin by a serine-glycine linker ([…]-SGSGSK-biotin; SEQ ID NO: 30). This peptide was synthesized in the Vanderbilt University Peptide Core Lab and biotinylated at the carboxyl terminus. The resulting […]-SGSGSK-biotin (SEQ ID NO: 30) was administered by tail vein injection into tumor bearing mice. B16F0 tumors in the hind limb were treated with sham irradiation (control), 4 Gy irradiation followed by […]-SGSGSK-biotin (SEQ ID NO: 30) injection, or […]-SGSGSK-biotin (SEQ ID NO: 30) followed by tumor irradiation (4 Gy). Tumors were frozen at 4 hours and sectioned for fluorescence staining. Avidin-FITC was incubated with tumor sections and imaged by UV microscopy.

[2] = tested on: P-selectin and platelet membrane glycoprotein IIB; test: Screening of phage-displayed scFv library on immobilized neoantigens, Western immunoblot, then in vivo screening of irradiated tumors; format: binding; details: recovered following in vivo screening to irradiated tumors
Protocol: A phage library comprising diverse single chain antibodies was prepared in M13 phage. Briefly, nucleotide sequences encoding antibody VL and VH regions separated by a (Gly4Ser)3 linker were fused to M13 gene III nucleotide sequences. When a recombinant M13 carrying these antibody-gene III fusions infects an appropriate host bacterium, the host produces recombinant M13 phage that display scFv antibody polypeptides (VL-linker-VH) fused to gene III protein.
The phage library was exposed to the radiation-inducible neoantigens P-selectin (also called CD62P; GENBANK™ Accession No. P98109) and/or platelet membrane glycoprotein IIB (also called CD41; GENBANK™ Accession No. P08514) immobilized on glass slides. Phage were selected based on antigen binding, and selected phage were pooled as a biased library. For representative in vitro screening methods, see Fowlkes et al., 1992; Haaparanta & Huse, 1995; Jung & Pluckthun, 1997; Peter et al., 2000; Holzem et al., 2001; Chiu et al., 2000.
Phage identified by in vitro screening were tested on Western immunoblots to confirm binding to the P-selection and platelet membrane glycoprotein IIB neoantigens. Phage that specifically bound P-selectin and platelet membrane glycoprotein IIB were subsequently used for in vivo screening of irradiated tumors as described in Example 5. Wild type phage were used as internal controls. Antibodies having substantial affinity for irradiated tumors were identified by observing an increased number of phage in the irradiated tumor when compared to a number of phage in a control organ (e.g., liver and lung). Phage antibodies with the greatest affinity for tumors were identified using the formula: number of phage in irradiated tumor/number of phage in each organ.

T1 sequence (P08514 32-887 limits assumed): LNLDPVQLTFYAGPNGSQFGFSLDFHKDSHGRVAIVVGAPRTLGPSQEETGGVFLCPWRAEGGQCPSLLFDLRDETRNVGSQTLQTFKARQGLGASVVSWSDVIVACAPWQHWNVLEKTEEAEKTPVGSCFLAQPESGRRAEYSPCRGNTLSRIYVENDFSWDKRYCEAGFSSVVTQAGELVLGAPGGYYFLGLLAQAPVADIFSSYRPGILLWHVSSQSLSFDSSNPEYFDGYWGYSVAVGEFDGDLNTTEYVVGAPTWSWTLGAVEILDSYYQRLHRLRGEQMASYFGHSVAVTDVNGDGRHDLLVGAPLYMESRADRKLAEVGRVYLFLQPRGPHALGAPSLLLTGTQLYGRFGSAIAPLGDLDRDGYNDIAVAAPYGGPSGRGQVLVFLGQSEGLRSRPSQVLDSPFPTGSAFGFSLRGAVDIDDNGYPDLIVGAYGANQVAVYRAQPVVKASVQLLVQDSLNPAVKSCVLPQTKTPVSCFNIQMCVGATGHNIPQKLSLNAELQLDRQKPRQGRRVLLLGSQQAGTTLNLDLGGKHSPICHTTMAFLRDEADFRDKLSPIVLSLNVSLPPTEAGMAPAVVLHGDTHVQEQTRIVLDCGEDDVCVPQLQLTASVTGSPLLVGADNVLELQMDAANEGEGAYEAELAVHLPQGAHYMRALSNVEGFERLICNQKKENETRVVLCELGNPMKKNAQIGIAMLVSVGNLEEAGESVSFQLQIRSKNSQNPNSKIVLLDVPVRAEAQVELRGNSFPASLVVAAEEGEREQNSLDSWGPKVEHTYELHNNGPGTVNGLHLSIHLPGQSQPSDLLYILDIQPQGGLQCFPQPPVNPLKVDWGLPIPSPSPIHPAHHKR
T1 sequence (P08514 891-1039 partner limits assumed): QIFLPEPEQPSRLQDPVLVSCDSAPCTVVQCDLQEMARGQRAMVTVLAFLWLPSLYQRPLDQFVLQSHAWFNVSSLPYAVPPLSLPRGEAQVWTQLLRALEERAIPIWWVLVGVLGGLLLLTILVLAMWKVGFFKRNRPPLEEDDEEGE
T1 sequence (P05106 27-788): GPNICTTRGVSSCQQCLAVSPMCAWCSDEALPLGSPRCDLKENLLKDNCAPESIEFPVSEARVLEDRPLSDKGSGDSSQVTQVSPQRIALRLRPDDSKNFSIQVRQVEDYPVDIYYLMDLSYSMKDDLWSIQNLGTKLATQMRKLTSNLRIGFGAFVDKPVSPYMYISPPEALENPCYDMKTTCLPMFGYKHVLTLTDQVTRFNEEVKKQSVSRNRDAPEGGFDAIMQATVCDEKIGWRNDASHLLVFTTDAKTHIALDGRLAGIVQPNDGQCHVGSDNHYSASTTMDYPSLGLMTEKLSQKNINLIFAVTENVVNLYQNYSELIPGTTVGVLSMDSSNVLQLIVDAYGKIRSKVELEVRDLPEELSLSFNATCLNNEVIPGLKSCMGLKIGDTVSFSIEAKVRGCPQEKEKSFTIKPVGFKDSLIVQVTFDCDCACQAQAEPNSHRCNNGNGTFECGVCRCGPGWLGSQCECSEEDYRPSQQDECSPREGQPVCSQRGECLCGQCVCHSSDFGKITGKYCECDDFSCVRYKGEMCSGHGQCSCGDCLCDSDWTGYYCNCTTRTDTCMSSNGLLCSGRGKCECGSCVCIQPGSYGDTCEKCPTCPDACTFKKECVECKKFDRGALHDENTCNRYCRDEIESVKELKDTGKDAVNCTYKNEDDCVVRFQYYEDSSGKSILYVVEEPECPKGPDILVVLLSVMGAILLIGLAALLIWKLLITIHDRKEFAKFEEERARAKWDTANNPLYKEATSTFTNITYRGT

Biapcitide [^99mTc-labeled biapticide]
tumor binding ([1]; administered immediately prior to radiation): 4 of 4 | localization to the tumor ([1]; administered within one hour following radiation): failed to show localization | binding in untreated tumor ([1]; second neoplasms not treated with radiation, two patients): not observed

HHLGGAKQAGDV (Artificial peptide ligand number 16) [dodecapeptide, segment of the γ subunit of fibrinogen]
efficiency of schedule of administration (B16F0 tumors; administration prior to irradiation compared to radiation before administration): administration prior to irradiation is a more efficient schedule

HHLGGAKQAGDV-SGSGSK-biotin
Avidin-FITC staining of tumor sections, irradiated tumors (B16F0 tumors; 4 Gy, tumors frozen at 4 hours): Avidin-FITC stained blood vessels were observed | Avidin-FITC staining of tumor sections, untreated control (B16F0 tumors; sham irradiation): not in untreated control

B1: SEQ ID NO: 20: scFv antibody encoded by SEQ ID NO: 19 (protein)
scFv: MAQVKLQQSGPELVKPGASVKMSCKASGYTFTSYVMHWVKQKPGQGLEWIGYINPYNDGTKYNEKFKGKAALTSDKSSSTAYMELSSLTSEDSAVYYCARFGNYGALDYWGQGTTVTVSSGGGGSGGGGSGGGGSDIELTQSPTIMSASPGEKVTITCSASSSVSYMHWFQQKPGTSPKPWIYGTSNLASGVPVRFSGSGSGTSYSLTISSMEAEDAATYYCQQWSSYPLTFGGGTKLEIKR
modifications: Artificial antibody ligand number 2
neoantigen recognition [2]: recognize the radiation-inducible neoantigens P-selectin and platelet membrane glycoprotein IIB

B2: SEQ ID NO: 24: scFv antibody encoded by SEQ ID NO: 23 (protein)
scFv: MAQVKLQQSGPELVKPGASVKMSCKASGYTFTSYVMHWVKQSNGKSLEWIGTIDPYYGGTSYNQKFKGKATLTVDKSSTTAYIQLKSLTSEDSAVYYCARWDGYYGGFSYWGQGTMVTVSSGGGGSGGGGSGGGGSDIELTQSPAIMSATLGEKVTMSCRASSNVKYMYWYQQKSGASPKLWIYYTSNLASGVPARFSGSGSGTSYSLTISSVEAEDAATYYCQQFTSSPYTFGSGTKLEIKRAAAGAPVPYPDPLEPRAA
modifications: nucleic acid encoding scFv antibody 10A
neoantigen recognition [2]: recognize the radiation-inducible neoantigens P-selectin and platelet membrane glycoprotein IIB

B3: SEQ ID NO: 18: scFv antibody encoded by SEQ ID NO: 17 (protein)
scFv: MAQVKLQQSGAELVMPGASVKMSCKASGYTFTDYWMHWVKQRPGQGLEWIGAIDTSDSYTSYNQKFKGKATLTVDESSSTAYMQLSSLTSEDSAVYYCARRGYYSAFDYWGQGTTVTVSSGGGGSGGGGSGGGGSDIELTQSPTTMAASPGEKVTITCRASSSVSYMHWFQQKSGTSPKPWIYDTSKLASGVPDRFSGSGSGTSYSLTISSMEAEDAATYYCLQRSSYPYTFGAGTKLEIKR
modifications: Artificial antibody ligand number 1
neoantigen recognition [2]: recognize the radiation-inducible neoantigens P-selectin and platelet membrane glycoprotein IIB

B4: SEQ ID NO: 22: scFv antibody encoded by SEQ ID NO: 21 (protein)
scFv: MAQVQLQESGPGLVKPSQSLSLTCSVTGYSITSNYWGWIRKFPGNKMEWMGYISYSGSTSYNPSLKSRISITRDTSKNQLFLQLNSVTTEDTATYYCARYSLFNYGRRDYVMDAWGQGTTVTVSSGGGGSGGGGSGGGGSDIELTQSPATMAASPGEKVTITCRASSTVSYMHWFQQKPGASPKPWIYDTSKLASGVPDRFSGSGSGTDFTLTIDPVQADDIATYYCQQSKDDPRTFGGGTKLELKRRPQVRRCRIRIRWNRVPH
modifications: Nucleic acid encoding scFv antibody 4A
neoantigen recognition [2]: recognize the radiation-inducible neoantigens P-selectin and platelet membrane glycoprotein IIB
